Data: patent publication US9611278B2 (Merck Sharp & Dohme Corp., priority 2013, dated 2017)

Biological target: T1, sGC α1/β1 heterodimer stably expressed in CHO-K1 cells (CHO-K1/sGC) (Homo sapiens, UniProt Q02108+Q02153)
T1 construct: expressed in transfected cells
T1 sequence (Q02108 1-690): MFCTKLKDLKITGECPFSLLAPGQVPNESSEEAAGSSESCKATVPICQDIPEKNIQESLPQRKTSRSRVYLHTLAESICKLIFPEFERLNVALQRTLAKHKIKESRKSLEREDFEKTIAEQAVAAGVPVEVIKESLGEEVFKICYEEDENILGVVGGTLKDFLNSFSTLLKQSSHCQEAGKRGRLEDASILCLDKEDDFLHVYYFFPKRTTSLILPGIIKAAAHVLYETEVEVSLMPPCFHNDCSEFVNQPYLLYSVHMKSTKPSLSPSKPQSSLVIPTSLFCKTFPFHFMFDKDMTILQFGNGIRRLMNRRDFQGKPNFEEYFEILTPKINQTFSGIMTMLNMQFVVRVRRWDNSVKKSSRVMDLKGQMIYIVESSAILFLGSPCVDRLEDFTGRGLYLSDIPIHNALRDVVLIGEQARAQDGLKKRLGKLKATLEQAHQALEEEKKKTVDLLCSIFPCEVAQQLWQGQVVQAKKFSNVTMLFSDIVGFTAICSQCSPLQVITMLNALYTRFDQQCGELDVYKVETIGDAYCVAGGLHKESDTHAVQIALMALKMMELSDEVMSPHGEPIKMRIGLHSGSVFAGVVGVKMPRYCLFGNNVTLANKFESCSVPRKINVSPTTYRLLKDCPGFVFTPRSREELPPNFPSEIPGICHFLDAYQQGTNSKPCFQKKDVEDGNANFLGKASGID
T1 sequence (Q02153 1-619): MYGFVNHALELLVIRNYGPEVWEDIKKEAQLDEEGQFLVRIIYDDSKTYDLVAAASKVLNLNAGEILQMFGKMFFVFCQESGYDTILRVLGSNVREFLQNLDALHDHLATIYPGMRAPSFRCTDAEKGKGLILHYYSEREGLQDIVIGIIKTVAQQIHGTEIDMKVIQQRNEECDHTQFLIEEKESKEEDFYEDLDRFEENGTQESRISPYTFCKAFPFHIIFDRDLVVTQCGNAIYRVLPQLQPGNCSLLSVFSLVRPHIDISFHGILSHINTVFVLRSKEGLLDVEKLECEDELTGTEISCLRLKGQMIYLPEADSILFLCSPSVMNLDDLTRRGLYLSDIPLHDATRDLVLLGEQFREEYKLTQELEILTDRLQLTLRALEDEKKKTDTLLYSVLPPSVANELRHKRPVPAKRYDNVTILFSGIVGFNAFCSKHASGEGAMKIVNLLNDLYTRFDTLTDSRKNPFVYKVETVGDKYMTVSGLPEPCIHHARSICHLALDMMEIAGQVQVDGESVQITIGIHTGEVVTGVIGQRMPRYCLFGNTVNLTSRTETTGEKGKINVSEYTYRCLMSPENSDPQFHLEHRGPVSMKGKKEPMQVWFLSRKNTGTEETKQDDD
Experiment: Cell-based sGC Functional Assay (CASA Assay)
Conditions: for Emax: CHO-K1, activation as percentage of maximum cGMP production of Compound A (set to 100%), read-out: % Act.; for EC50: inflection point of cGMP generation in CHO-K1/sGC cells, 4P fit, 1 hr at 37° C., read-out: IP
Summary of the method: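 CHO-K1 cells stably expressing human sGC α1/β1 were incubated with compound for 1 h at 37 °C in buffer with 0.5 mM IBMX and 2.5% DMSO, with or without 1 μM DETA-NO. Intracellular cGMP was read by HTRF and expressed as percentage of maximal activation by reference activator Compound A. Values came from a 4-parameter fit.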

Compound	Emax [%]	EC50 [nM]
CCC1(c2nnc(C3CC3)o2)C(=O)Nc2nc(-c3nc(CCC(F)(F)C(F)(F)F)nc4c3cnn4C)nc(N)c21 (stereo not shown) [Example 53, 4-Amino-5-(5-cyclopropyl-1,3,4-oxadiazol-2-yl)-5-ethyl-2-(1-methyl-6-(3,3,4,4,4-pentafluorobutyl)-1H-pyrazolo[3,4-d]pyrimidin-4-yl)-5,7-dihydro-6H-pyrrolo[2,3-d]pyrimidin-6-one]	165	280
Cn1ncc2c(-c3nc(N)c4c(n3)NC(=O)C4(C)c3cn(C4CC4)nn3)nc(CCC(F)(F)C(F)(F)F)nc21 (stereo not shown) [Example 59, 4-Amino-5-(1-cyclopropyl-1H-1,2,3-triazol-4-yl)-5-methyl-2-(1-methyl-6-(3,3,4,4,4-pentafluorobutyl)-1H-pyrazolo[3,4-d]pyrimidin-4-yl)-5,7-dihydro-6H-pyrrolo[2,3-d]pyrimidin-6-one]	117	29
CC(C)n1ncc(C2(C)C(=O)Nc3nc(-c4nc(CCC(F)(F)C(F)(F)F)nc5c4cnn5C)nc(N)c32)n1 (stereo not shown) [Example 61, 4-Amino-5-(2-isopropyl-2H-1,2,3-triazol-4-yl)-5-methyl-2-(1-methyl-6-(3,3,4,4,4-pentafluorobutyl)-1H-pyrazolo[3,4-d]pyrimidin-4-yl)-5,7-dihydro-6H-pyrrolo[2,3-d]pyrimidin-6-one]	110	269
[2H]C([2H])([2H])n1ncc2c(-c3nc(N)c4c(n3)NC(=O)C4(C)c3cn(CC)nn3)nc(CCC(F)(F)C(F)(F)F)nc21 (stereo not shown) [Example 64, 4-Amino-5-(1-ethyl-1H-1,2,3-triazol-4-yl)-5-methyl-2-(1-(methyl-d3)-6-(3,3,4,4,4-pentafluorobutyl)-1H-pyrazolo[3,4-d]pyrimidin-4-yl)-5,7-dihydro-6H-pyrrolo[2,3-d]pyrimidin-6-one]	120	114
Cn1ncc2c(-c3nc(N)c4c(n3)NC(=O)C4(C)c3cn(CC4CC4)nn3)nc(CCC(F)(F)C(F)(F)F)nc21 (stereo not shown) [Example 65, 4-Amino-5-(1-(cyclopropylmethyl)-1H-1,2,3-triazol-4-yl)-5-methyl-2-(1-methyl-6-(3,3,4,4,4-pentafluorobutyl)-1H-pyrazolo[3,4-d]pyrimidin-4-yl)-5,7-dihydro-6H-pyrrolo[2,3-d]pyrimidin-6-one]	111	169
CC(C)Cn1cc(C2(C)C(=O)Nc3nc(-c4nc(CCC(F)(F)C(F)(F)F)nc5c4cnn5C)nc(N)c32)nn1 (stereo not shown) [Example 70, 34-Amino-5-(1-isobutyl-1H-1,2,3-triazol-4-yl)-5-methyl-2-(1-methyl-6-(3,3,4,4,4-pentafluorobutyl)-1H-pyrazolo[3,4-d]pyrimidin-4-yl)-5,7-dihydro-6H-pyrrolo[2,3-d]pyrimidin-6-one]	132	294
CCn1ncc(C2(C)C(=O)Nc3nc(-c4nc(CCC(F)(F)C(F)(F)F)nc5c4cnn5C)nc(N)c32)n1 (stereo not shown) [Example 79, 4-Amino-5-(2-ethyl-2H-1,2,3-triazol-4-yl)-5-methyl-2-(1-methyl-6-(3,3,4,4,4-pentafluorobutyl)-1H-pyrazolo[3,4-d]pyrimidin-4-yl)-5,7-dihydro-6H-pyrrolo[2,3-d]pyrimidin-6-one]	169	491
Cn1ncc(C2(C)C(=O)Nc3nc(-c4nc(CCC(F)(F)C(F)(F)F)nc5c4cnn5C)nc(N)c32)n1 (stereo not shown) [Example 80, 4-Amino-5-methyl-5-(2-methyl-2H-1,2,3-triazol-4-yl)-2-(1-methyl-6-(3,3,4,4,4-pentafluorobutyl)-1H-pyrazolo[3,4-d]pyrimidin-4-yl)-5,7-dihydro-6H-pyrrolo[2,3-d]pyrimidin-6-one]	90	408
CC(C)n1cc(C2(C)C(=O)Nc3nc(-c4nc(CCC(F)(F)C(F)(F)F)nc5c4cnn5C)ncc32)nn1 (stereo not shown) [Example 81]	102	620
[2H]C([2H])([2H])n1ncc2c(-c3nc(N)c4c(n3)NC(=O)C4(c3nc(CC(C)(C)C(=O)OCC)cs3)C3CC3)nc(CCC(F)(F)C(F)(F)F)nc21 (stereo not shown) [Example 82, Ethyl 3-(2-(4-amino-5-cyclopropyl-2-(1-(methyl-d3)-6-(3,3,4,4,4-pentafluorobutyl)-1H-pyrazolo[3,4-d]pyrimidin-4-yl)-6-oxo-6,7-dihydro-5H-pyrrolo[2,3-d]pyrimidin-5-yl)thiazol-4-yl)-2,2-dimethylpropanoate]	78	509
[2H]C([2H])([2H])n1ncc2c(-c3nc(N)c4c(n3)NC(=O)C4(c3nc(CC(C)(C)C(=O)O)cs3)C3CC3)nc(CCC(F)(F)C(F)(F)F)nc21 (stereo not shown) [Example 83, 3-(2-(4-Amino-5-cyclopropyl-2-(1-(methyl-d3)-6-(3,3,4,4,4-pentafluorobutyl)-1H-pyrazolo[3,4-d]pyrimidin-4-yl)-6-oxo-6,7-dihydro-5H-pyrrolo[2,3-d]pyrimidin-5-yl)thiazol-4-yl)-2,2-dimethylpropanoic acid]	80	797
Cn1ccc2c(-c3nc(N)c4c(n3)NC(=O)C4(C)c3ccc(F)cn3)nc(CCC(F)(F)C(F)(F)F)nc21 (stereo not shown) [Example 85, 4-Amino-5-(5-fluoropyridin-2-yl)-5,7′-dimethyl-2′-(3,3,4,4,4-pentafluorobutyl)-5,7-dihydro-6H,7′H-[2,4′-bipyrrolo[2,3-d]pyrimidin]-6-one]	108	112
Cc1nnc(C2(C)C(=O)Nc3nc(-c4nc(CCC(F)(F)C(F)(F)F)nc5c4ccn5C)nc(N)c32)o1 (stereo not shown) [Example 87, 4-Amino-5,7′-dimethyl-5-(5-methyl-1,3,4-oxadiazol-2-yl)-2′-(3,3,4,4,4-pentafluorobutyl)-5,7-dihydro-6H,7′H-[2,4′-bipyrrolo[2,3-d]pyrimidin]-6-one]	86	378
Cn1ccc2c(-c3nc(N)c4c(n3)NC(=O)C4(c3nnc(C4CC4)o3)C3CC3)nc(CCC(F)(F)C(F)(F)F)nc21 (stereo not shown) [Example 88, 4-Amino-5-cyclopropyl-5-(5-cyclopropyl-1,3,4-oxadiazol-2-yl)-7′-methyl-2′-(3,3,4,4,4-pentafluorobutyl)-5,7-dihydro-6H,7′H-[2,4′-bipyrrolo[2,3-d]pyrimidin]-6-one]	109	715
